The subject of series [1] is SARS-CoV-2, Hongkong strain. It is filed as in vivo, K18 hACE2 transgenic mice.
The next series in a line: Microsome stability. Type of series: in vitro ADME, Monkey. The note with it: monkey, microsomes, pH 7.4. The procedure:
(§1) Preparation of Solutions: Stock solution (10 mM) of each of test compounds was prepared in DMSO. The stock solution for each compound was then diluted into 100 μM with acetonitrile.
(§2) Microsome Incubations: Incubation mixtures were prepared in a total volume of 200 μL with final component concentrations as follows: 0.1M PBS (pH 7.4), NADPH (2 mM) and liver microsomes (0.2 mg/mL) as well as test compound (1 μM) or Molnupiravir (1 μM) as a positive control, wherein the NADPH was added after a 5-min preincubation of all other components at 37° C. Pipette-mixed to achieve a homogenous suspension and immediately transferred 20 μL incubate as a 0 min sample to wells in a “Quenching” plate followed by adding 200 μL of acetonitrile with metolazone as IS and pipette-mixing. At 2, 5, 10, and 45 min, pipette-mixed the incubate and serially transfer samples of 20 μL incubate per time point to wells in a separate “Quenching” plate followed by adding 200 μL of acetonitrile with metolazone as IS and pipette-mixing.
(§3) Sample Analysis: The 96-well plate was centrifuged at 6000 g for 10 min. The supernatant was injected onto the LC-MS/MS system for analysis.

Series [2] in a line: in vitro. Type of series: in vitro ADME. The note with it: microsomes; for half-life at 1 µM: pH 7.4. On the procedure:
as §1, §2, §3

Series [3] is described as follows: in vitro. To be noted: plasma. It is filed as in vitro ADME. On the procedure:
as §1
Plasma Incubations: Plasma incubations were conducted in duplicate in 96-well plate at 37° C. Plasma was prewarmed in a total volume of 198 μL for 5 min at 37° C., then added 2 μL of 100 μM test compound into an incubation well containing plasma, pipette-mixed to achieve a homogenous suspension and immediately transferred 20 μL incubate as a 0 min sample to wells in a “Quenching” plate followed by adding 200 μL of acetonitrile with metolazone as internal standard (IS) and pipette-mixing. At 2, 5, 60, and 90 min, pipette-mixed the incubate and serially transfer samples of 20 μL incubate per time point to wells in a separate “Quenching” plate followed by adding 200 μL of acetonitrile with metolazone as IS and pipette-mixing.
as §3

A further series can be described thus: in vivo. Also noted: species or system Beagle Dogs. To be noted: dog, po, 10 mg/kg; for AUC(0-inf): AUCINF of EX-1/NHC/CH2018; for AUC(0-t): AUClast of EX-1/NHC/CH2018; for Cmax: Cmax of EX-1/NHC/CH2018; for half-life: T1/2 of EX-1/NHC/CH2018; for Tmax: Tmax of EX-1/NHC/CH2018. On the procedure:
Example 174: Pharmacokinetic Study of EX-2 (CH2101), Molnupiravir (CH2017) and its Metabolite NHC (CH2018) Following a Single PO Administration of EX-2 (CH2101) or Molnupiravir (CH2017) in Male and Female Beagle Dogs
Both test compounds were prepared in 1% methyl cellulose (400 cps, SIGMA, SLCF9694) solution in purified water.
A total of 6 male+6 female Beagle Dogs, approximately 7-13 kg of bodyweight, were originally purchased from Marshall Biotechnology Co., Ltd. The animals were fasted overnight prior to dosing and food was re-provided after 4 hours post dosing.
The animals were restrained manually, and approximately 1 mL of blood at each time point was collected into pre-cooled EDTA-K2 tubes via cephalic or saphenous veins. Blood samples were centrifuged at 4° C. (4000 rpm. 5 min) to obtain plasma within 30 min after sample collection. All samples were stored at approximately −80° C. until analysis. The backup samples will be discarded after the in vivo experiment has been completed for two months unless requested.

The mark [4] stands for this setting: Remdesivir 25 mpk SC twice daily.

Each structure is given as a SMILES string.

Turning to `CCC(CC)COC(=O)[C@H](C)N[P@](=O)(OC[C@H]1O[C@@](C#N)(c2ccc3c(N)ncnn23)[C@H](O)[C@@H]1O)Oc1ccccc1` [Remdesivir], the Survival proportions in series [1] (14-day study, twice daily days 0-6, CH2101 450 mg/kg PO, Remdesivir 25 mg/kg SC) amounted to 0%. In series [1] (setting [4]), the “Body weight loss observed from day” value was determined as 2 days, the “Gross clinical symptoms appear from day” value was 6 days and the “Max clinical symptom score (mean value)” value was 2. Further, the Prolonged survival time in series [1] (compared with vehicle group (group 1), Remdesivir 25 mg/kg SC) turned out to be 20%. For the same compound, in series [1] (day 5), the “Virus titer in lung, comparison with Remdesivir group (mean difference)” value is given as 2.47. Besides, the “Virus titer in lung” value in series [1] (day 5, plaque assay, mean, twice daily days 0-4, CH2101 450 mpk PO, Remdesivir 25 mpk SC) amounted to 5.11 Log 10 plaque#/g lung. Moreover, in series [1] (day 5, CH2101 450 mpk PO, Remdesivir 25 mpk SC), the “Virus titer in lung, mean difference vs. group 1 (Vehicle group)” value is listed as 0.83 Log. Moreover, in series [1] (day 6, normalized to day 0, Remdesivir 25 mpk SC twice daily), the Body weight change is on record as −13.6%. The compound also yielded a Median survival time in series [1] (twice daily days 0-6, CH2101 450 mg/kg PO, Remdesivir 25 mg/kg SC) of 6 days.

Turning to `COC(C)(C)C(=O)ONc1ccn([C@@H]2O[C@H](CO)[C@@H](O)[C@H]2O)c(=O)n1` [EX-53], the half-life at 1 µM in the series “Microsome stability” is 7.3 min; in “in vitro [2]” (dog) it was 87.5 min; in the series “in vitro [2]” (human), 86.6 min; in “in vitro [2]” (mouse), 17.1 min; in “in vitro [2]” (rat), 70.5 min; in the series “in vitro [3]” (dog), 156 min. Also, the half-life at 1 µM in “in vitro [3]” (human) was 4.8 min; in the series “in vitro [3]” (monkey), 9.8 min; in the series “in vitro [3]” (mouse), 3.1 min; in “in vitro [3]” (rat), 94.3 min.

On to `O=C(ONc1ccn([C@@H]2O[C@H](CO)[C@@H](O)[C@H]2O)c(=O)n1)C1CC1` [EX-15], for which the half-life at 1 µM in the series “Microsome stability” stood at 25 min; in the series “in vitro [2]” (dog), 132 min; in “in vitro [2]” (human), 67.3 min; in “in vitro [2]” (mouse), 15.4 min; in the series “in vitro [3]” (dog), 109 min; in the series “in vitro [3]” (human), 5.8 min. The half-life at 1 µM in the series “in vitro [3]” (monkey) was determined as 16.5 min; in the series “in vitro [3]” (mouse), 5.2 min; in the series “in vitro [3]” (rat), 88.9 min. For the same compound, the T1/2 result in “in vitro [2]” (rat) is “∞”.

For the compound `CC(C)C(=O)ONc1ccn([C@@H]2O[C@H](CO)[C@@H](O)[C@H]2O)c(=O)n1` [EX-3], the half-life at 1 µM in the series “Microsome stability” turned out to be 4.4 min; in “in vitro [2]” (dog) it was 33.8 min; in “in vitro [2]” (human), 13.5 min; in the series “in vitro [2]” (mouse) it was 6.8 min; in “in vitro [2]” (rat), 46.6 min; in “in vitro [3]” (dog) it was 21.2 min. Further, the half-life at 1 µM turned out to be 2.8 min in the series “in vitro [3]” (human), 3.2 min in the series “in vitro [3]” (monkey), 0.6 min in “in vitro [3]” (mouse) and 25.9 min in the series “in vitro [3]” (rat).

In the series “in vivo” (both sexes, beagle), `O=c1nc(NO)ccn1[C@@H]1O[C@H](CO)[C@@H](O)[C@H]1O` [EX-1/NHC/CH2018, NHC] had an AUC(0-inf) of 9680 ng·h/mL, an AUC(0-t) of 9580 ng·h/mL, a Cmax of 4780 ng/mL and a half-life of 227 min. For the same compound, in “in vivo” (both sexes, beagle), the Tmax was 52.5 min. Further, in “in vivo” (both, Beagle), the “AUCmale/female of EX-1/NHC/CH2018” value was 158%. Also, in the series “in vivo” (female, beagle), the “AUCINF of EX-1/NHC/CH2018” value was determined as 7683 ng·h/mL, the “AUClast of EX-1/NHC/CH2018” value was 7632 ng·h/mL, the “Cmax of EX-1/NHC/CH2018” value was determined as 3940 ng/mL and the “T1/2 of EX-1/NHC/CH2018” value worked out at 63.6 min. Besides, in the series “in vivo” (female, beagle), the AUC(0-inf) came to 7310 ng·h/mL, the AUC(0-t) amounted to 7220 ng·h/mL, the concentration peaked (Cmax) at 4550 ng/mL and the half-life was 76.8 min. Moreover, in the series “in vivo” (female, beagle), the Tmax turned out to be 60 min. In the series “in vivo” (male, beagle), the “AUCINF of EX-1/NHC/CH2018” value stood at 11046 ng·h/mL, the “AUClast of EX-1/NHC/CH2018” value was found to be 10957 ng·h/mL, the “Cmax of EX-1/NHC/CH2018” value worked out at 5240 ng/mL and the “T1/2 of EX-1/NHC/CH2018” value is 343 min. For the same compound, in “in vivo” (male, beagle), the “Tmax of EX-1/NHC/CH2018” value is 30 min, the AUC(0-inf) came to 12700 ng·h/mL, the AUC(0-t) turned out to be 12500 ng·h/mL and the peak level (Cmax) was 5380 ng/mL. Also, in the series “in vivo” (male, beagle), the half-life was 425 min and the Tmax turned out to be 60 min.

In general, half-life refers to how long it takes for the measured level to halve. Low values mean rapid decline, high ones slow decline. What is called AUC(0-inf) is total exposure, with the tail of the curve extrapolated. Higher therefore signals high exposure. One may read the AUC(0-t) as the area under the concentration-time curve up to a stated or last time point. Read a high AUC(0-t) as more exposure. For orientation: Cmax means the highest concentration seen after dosing. What is called Tmax is the time from dosing to the highest level.
